Experimental data reported in US20030124590A1, “Carbohydrate response element binding protein and uses thereof” (priority 2001, published 2003).

Tests used:
ChREBP [1] = assay: Intraperitoneal db-cAMP in rats, gel shift of liver nuclear extracts; assay type: in vivo, rat; details: rats fed high carbohydrate diet, db-cAMP 1 mmol/kg intraperitoneally
Protocol: Treatment of Rats with Dibutyryl (db)-cAMP and Nuclear Extract Preparation—Male Sprague-Dawley rats weighting 250 g were used in all experiments. After 48 h starvation, the rats were fed a high carbohydrate diet and db-cAMP (1 mmol/kg) was injected intraperitoneally. The rats were sacrificed 10 min and 30 min after injection and nuclear extracts were prepared immediately from rat liver as described in Example 1. Gel shifts were performed as described in Example 2.

L-PK gene = assay: L-PK promoter luciferase reporter in ChREBP-transfected primary hepatocytes with kinase/phosphatase inhibitors or db-cAMP; details: treatment with db-cAMP, low and high glucose
Protocol: Primary hepatocytes were prepared from male Sprague-Dawley rats using the collagenase (Life Technologies, Inc.) perfusion method (Berry and Friend (1969) J Cell Bio […], 506-520) and plated in collagen-coated six-well tissue culture plates (Primaria Falcon, Franklin Lakes, N.J.) at a density of 1×10^6 cells/well in glucose-free Dulbecco's modified Eagle's medium (Life Technologies, Inc.) supplemented with 100 nM dexamethasone, 10 nM insulin, 100 units/ml penicillin, 100 μg/ml streptomycin and 10% dialyzed fetal bovine serum (Life Technologies, Inc.). Following attachment, synthetic liposomes were used to transfect hepatocytes with 0.5 μg of the luciferase reporter plasmid and 0.1 μg of the internal control plasmid pRL-TK. After 14 h the media was replaced by Dulbecco's modified Eagle medium supplemented with 100 nM dexamethasone, 10 nM insulin, 10% Fetal Bovine Serum and either 10 mM lactate, 5.5 mM glucose or 27.5 mM glucose. The cells were incubated for an additional 12 h prior to determination of luciferase activity using the Dual-Luciferase Reporter Assay System (Promega).
Protein Kinase and Protein Phosphatase Inhibitors—Prior to exchange to 5.5 or 27.5 mM glucose medium, transfected primary culture hepatocytes were treated for 1 h with 10 μM H-89, 500 nM cantharidic acid (Calbiochem), 5 μM KN-62 (Calbiochem), 30 μM PD98059 (Calbiochem), 50 μM Genistein, or dimethylsulfoxide vehicle.
Rat primary cultured hepatocytes were transfected a plasmid comprising a gene encoding the wild type (WT)-ChREBP. H-89, cantharidic acid, or dimethylsulfoxide vehicle was added, and the cells were incubated in 5.5 mM (□) or 27.5 mM (▪) glucose for 12 h.
Rat primary cultured hepatocytes were transfected with wild type (WT)-ChREBP, S626A, S626D, T666A, or T666D. After transfection, the cells were incubated in 5.5 mM (□) or 27.5 mM (▪) glucose for 12 h. […] Rat primary cultured hepatocytes were transfected with wild type (WT)-ChREBP, S196A+S626A, or S196A+T666A. After transfection, cells were incubated under 5.5 mM (□) or 27.5 mM (▪) glucose, and cAMP was added both low and high glucose.

GFP-fused ChREBP = assay: Subcellular localization of GFP-fused ChREBP in primary hepatocytes (confocal microscopy); assay type: cell-based, rat; details: within 10 min after addition of db-cAMP into 27.5 mM glucose medium, preliminary, n=3
Protocol: Determination of Subcellular Localization of ChREBP—Subcellular localization of GFP-fused WT-ChREBP or its mutants was determined using a confocal laser scanning microscope (Bio Rad, Hercules, Calif.). In order to quantitate nuclear localization of ChREBP, for each condition, 100 transfected hepatocytes from 5 independent experiments were scored in a blinded fashion as to whether the GFP-fused ChREBP was predominantly nuclear or cytoplasmic. The identity of the nucleus was verified by comparative phase-contrast microscopy. B. Results
Rat primary cultured hepatocytes were transfected with a plasmid comprising a gene encoding the GFP-fused wild type-ChREBP or NLS domain deletion mutants. […] The values are expressed as mean±SE. *P<0.05 compared to that of wild type-ChREBP.

AMPK = AMPK activity in hepatocytes (SAMS peptide); assay type: cell-based, rat; details: fatty acid added to high glucose medium
Protocol: The extract was centrifuged at 15,800·g for 15 min, and the resulting supernatant solution was transferred to a fresh tube, adjusted to 10% with polyethylene glycol 8000 ([…], France), and incubated on ice for 20 min. Following centrifugation at 15,800·g for 15 min, the pellet was suspended in 100 μl buffer A. […] A. (2000) Proc. Natl. Acad. Sci. USA. 97, 4023-4028).

cultured hepatocytes = assay: AMP, ADP, ATP assays in cultured hepatocytes; assay type: cell-based, rat; details: hepatocytes 12 h with 150 µM fatty acid, mean±S.E., n=4
Protocol: Hepatocytes were scraped and collected directly into 0.5 ml of ice-cold 6% (v/v) HClO4. The concentrations of ADP and ATP were determined enzymatically in the acid-extract with methods described (Kawaguchi, T., Veech, R. L., and Uyeda, K. (2001) J. Biol. Chem. 276, 28554-28561), and the cytosolic AMP was calculated by the method of Veech et al. (Veech, R. L., Lawson, J. W., Cornell, N. W., and Krebs, H. A. (1979) J. Biol. Chem. 254, 6538-6547).
Values are expressed as mean±S.E. (n=4).

[2] = tested on: C-terminus ChREBP (bHLH/ZIP domain, Thr666); assay: Phosphorylation/dephosphorylation and DNA binding of recombinant C-terminus ChREBP; assay type: biochemical, mouse; details: catalytic subunit of PP2A 200 units, 30° C
Description: Recombinant Protein Production—Recombinant protein of mouse ChREBP was expressed in Escherichia coli by inserting the C-terminus of the ChREBP construct, encoding the amino acids 651-864 of ChREBP+His6 tag, into the BamHI and HindIII sites of the T7-based expression vector pMal-c2 (New England Bio Lab, Beverly, Mass.) to produce an N-terminal fusion with maltose-binding protein. Expressed protein was purified according to manufacturer's instruction.
Phosphorylation and Dephosphorylation of ChREBP—The reaction mixture contained, in a final volume of 0.2 ml, 50 mM Tris/Cl pH 7.5, 0.2 μM [γ-^32P]ATP (3000 Ci/mmol), 5 mM MgCl2, 0.2 mM EDTA, 2 mM dithiothreitol, and 5 mM potassium phosphate. […] At given time intervals, aliquots were removed and DNA-binding activity was determined by gel shift assay as described in Example 2. [^32P]phosphate-bound ChREBP was also determined as previously described (Kitajima and Uyeda (1983) J. Biol Chem 258, 7352-7357).
FIG. 13A is a graph showing that phosphate incorporation mediated by PKA correlates directly with DNA binding. […] At given time intervals, [^32P]phosphate incorporation (□) and DNA-binding activity (▪) were determined. Values are expressed as mean±SE. […] At given time intervals, remaining phosphorylated C-terminus ChREBP (□) and DNA-binding activity (▪) were determined. Values are expressed as mean±SE.

ChREBP [3] = assay: Gel shift of purified ChREBP after incubation with PKA/PP2A in vitro; assay type: biochemical, rat; details: catalytic subunit of PP2A 0.025 U/μl added
Protocol: Gel shift assay. Gel mobility shift assays were performed as described by Liu et al. (Liu et al. (1993) J Biol Chem 268, 12787-12795). Double-stranded oligonucleotides (Table 1) were prepared by mixing equal amounts of the complementary single-stranded DNAs in 50 mM NaCl, heating to 70° C. for 15 min, and cooling to room temperature. The annealed oligonucleotides were labeled with ^32P in the presence of [γ^32P]-ATP (Amersham Pharmacia) and T4 polynucleotide kinase (New England Biolabs). Binding reactions were carried out in reaction mixture containing 20 mM Hepes (pH 7.9), 50 mM KCl, 5 mM DTT, 0.2 mM EDTA, 0.5 mM PMSF, 10% glycerol, 1 μg/μl of poly(dI-dC) (Amersham Pharmacia) and 1 μg/μl of nuclear extract. The reaction mixture was incubated at room temperature for 30 min and DNA-protein complexes were separated by electrophoresis in a 4.5% nondenaturing polyacrylamide gel.
Purified ChREBP was incubated with PKA and/or PP2A in vitro and measured by gel-shift analysis with the [^32P]-radiolabeled WT oligonucleotide. Purified ChREBP was incubated for 20 min with ATP (1 mM), PKA (0.1 U/μl), 0.2 U/μl PKI, 0.025 U/μl PP2A and the PP2A inhibitor, okadaic acid (10 nM).

[4] = target: T1, ChREBP (Carbohydrate Response Element Binding Protein) from rat liver (UniProt Q8VIP2)
T1 sequence: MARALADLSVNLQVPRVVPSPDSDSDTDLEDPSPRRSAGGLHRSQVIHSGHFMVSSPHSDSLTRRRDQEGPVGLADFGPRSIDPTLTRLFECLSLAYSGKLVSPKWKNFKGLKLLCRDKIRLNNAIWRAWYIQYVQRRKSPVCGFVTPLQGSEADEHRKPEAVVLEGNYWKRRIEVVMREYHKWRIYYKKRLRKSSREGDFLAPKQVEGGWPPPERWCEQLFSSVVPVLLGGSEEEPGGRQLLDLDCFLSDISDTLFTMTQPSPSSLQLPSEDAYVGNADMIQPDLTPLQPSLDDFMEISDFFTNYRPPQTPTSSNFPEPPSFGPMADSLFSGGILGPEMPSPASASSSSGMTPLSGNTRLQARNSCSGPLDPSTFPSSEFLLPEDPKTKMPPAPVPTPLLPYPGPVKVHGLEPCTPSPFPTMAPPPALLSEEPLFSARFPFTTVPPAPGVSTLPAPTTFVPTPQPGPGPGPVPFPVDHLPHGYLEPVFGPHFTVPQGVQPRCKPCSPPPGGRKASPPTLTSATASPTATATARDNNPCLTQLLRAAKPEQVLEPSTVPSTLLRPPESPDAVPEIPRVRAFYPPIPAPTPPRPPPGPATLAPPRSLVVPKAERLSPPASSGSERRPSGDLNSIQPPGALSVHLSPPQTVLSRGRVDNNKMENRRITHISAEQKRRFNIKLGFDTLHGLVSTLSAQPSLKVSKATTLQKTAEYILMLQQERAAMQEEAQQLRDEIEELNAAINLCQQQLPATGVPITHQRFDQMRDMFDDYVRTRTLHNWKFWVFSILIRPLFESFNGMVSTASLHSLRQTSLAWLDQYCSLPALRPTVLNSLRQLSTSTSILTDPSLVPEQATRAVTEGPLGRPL

[5] = target: T2, ChREBP, purified from rat liver (Rattus norvegicus, UniProt Q8VIP2 Q8VIP2:1-865); assay: pulldown; DNA-affinity column; eluted at 0.8 M KCl
T2 sequence: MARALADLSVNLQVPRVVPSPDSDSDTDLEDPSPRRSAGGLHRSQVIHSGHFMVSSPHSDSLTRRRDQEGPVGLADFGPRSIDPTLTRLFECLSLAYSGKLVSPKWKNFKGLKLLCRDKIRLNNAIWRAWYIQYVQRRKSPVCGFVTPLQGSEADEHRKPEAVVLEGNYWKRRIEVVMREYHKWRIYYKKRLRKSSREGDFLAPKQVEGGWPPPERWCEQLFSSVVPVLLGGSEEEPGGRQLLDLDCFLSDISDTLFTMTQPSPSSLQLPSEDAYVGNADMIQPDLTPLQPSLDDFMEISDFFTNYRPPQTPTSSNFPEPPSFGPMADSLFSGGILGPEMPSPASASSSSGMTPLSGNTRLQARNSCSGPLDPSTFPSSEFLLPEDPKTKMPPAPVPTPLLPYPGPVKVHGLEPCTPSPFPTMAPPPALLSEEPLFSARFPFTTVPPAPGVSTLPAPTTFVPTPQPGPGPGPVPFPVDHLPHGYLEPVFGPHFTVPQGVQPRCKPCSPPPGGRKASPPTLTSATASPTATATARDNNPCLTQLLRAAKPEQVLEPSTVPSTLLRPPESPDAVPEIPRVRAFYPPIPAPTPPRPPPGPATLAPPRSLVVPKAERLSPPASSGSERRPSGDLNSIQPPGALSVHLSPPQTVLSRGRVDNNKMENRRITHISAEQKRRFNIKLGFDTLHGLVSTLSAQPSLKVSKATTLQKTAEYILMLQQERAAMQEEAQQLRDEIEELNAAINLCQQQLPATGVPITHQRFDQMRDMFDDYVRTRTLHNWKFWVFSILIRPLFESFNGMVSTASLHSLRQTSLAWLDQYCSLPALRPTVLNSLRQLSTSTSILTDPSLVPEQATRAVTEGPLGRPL

[6] = target: T2, ChREBP, purified from rat liver; assay: EMSA; purified ChREBP; details: label: 32P
Protocol: Purified ChREBP was incubated with PKA and/or PP2A in vitro and measured by gel-shift analysis with the [³²P]-radiolabeled WT oligonucleotide. Purified ChREBP was incubated for 20 min with ATP (1 mM), PKA (0.1 U/μl), 0.2 U/μl PKI, 0.025 U/μl PP2A and the PP2A inhibitor, okadaic acid (10 nM).

CCCC(=O)Nc1ncnc2c1ncn2[C@@H]1O[C@@H]2COP(=O)(O)O[C@H]2[C@H]1OC(=O)CCC [db-cAMP, Dibutyryl (db)-cAMP]
time after injection to inactivation of ChREBP DNA-binding activity in liver nuclear extracts (ChREBP [1]): ≤ 10 min | transcriptional activity of S196A+T666A ChREBP double mutant (L-PK gene): not inhibited | export of GFP-ChREBP from nuclei to cytoplasm (GFP-fused ChREBP): not exported

CCCCCCCC(=O)O [octanoate]
increase of AMPK activity compared to absence of fatty acid (AMPK): about two-fold | AMP (cultured hepatocytes): 942 ± 106 nmol/g cells | AMP/ATP ratio (cultured hepatocytes): 0.30 ± 0.03

PP2A: catalytic subunit of protein phosphatase 2A
DNA-binding activity of 32P-phosphorylated bHLH/ZIP domain on incubation with PP2A [2]: complete recovering of the activity | DNA-binding activity of inactivated ChREBP (ChREBP [3]): restored

catalytic subunit of cAMP-dependent protein kinase (PKA)
radiolabeling of ChREBP with γ-[32P]-ATP (SDS-PAGE) [4]: leads to radiolabeling of ChREBP

B1: DNA-affinity column ChRE (dsDNA)
DNA 1: CATGGGCGCACGGGGCACTCCCGTGGTTCC
DNA 2: GGAACCACGGGAGTGCCCCGTGCGCCCATG
binding result [5]: binds

B2: LPK ChRE WT (dsDNA)
DNA 1: GGGCGCACGGGGCACTCCCGTGGTTCC
DNA 2: GGAACCACGGGAGTGCCCCGTGCGCCC
binding result [6]: binds
